According to ChEMBL document CHEMBL3352031, “Discovery of diamine-linked 17-aroylamido-17-demethoxygeldanamycins as potent Hsp90 inhibitors” (Eur J Med Chem, 2014):

Test system: MDA-MB-231
Assay: cells
Conditions: Homo sapiens, MDA-MB-231, 72 h
Description: Cytotoxicity against human MDA-MB-231 cells after 72 hrs by MTT assay

CO[C@H]1/C=C\C=C(/C)C(=O)NC2=CC(=O)C(NCCCCCCNC(=O)/C=C/c3ccc(O)cc3)=C(C[C@@H](C)C[C@H](OC)[C@H](O)[C@@H](C)/C=C(\C)[C@@H]1OC(N)=O)C2=O
IC50: 970 nM

COc1cc(/C=C/C(=O)NCCCCCCNC2=C3C[C@@H](C)C[C@H](OC)[C@H](O)[C@@H](C)/C=C(\C)[C@H](OC(N)=O)[C@@H](OC)/C=C\C=C(/C)C(=O)NC(=CC2=O)C3=O)cc(OC)c1
IC50: 1700 nM

CO[C@H]1/C=C\C=C(/C)C(=O)NC2=CC(=O)C(NCCCCCCNC(=O)c3ccccc3O)=C(C[C@@H](C)C[C@H](OC)[C@H](O)[C@@H](C)/C=C(\C)[C@@H]1OC(N)=O)C2=O
IC50: 6040 nM

CO[C@H]1/C=C\C=C(/C)C(=O)NC2=CC(=O)C(NCCCCCCNC(=O)c3ccc([N+](=O)[O-])cc3)=C(C[C@@H](C)C[C@H](OC)[C@H](O)[C@@H](C)/C=C(\C)[C@@H]1OC(N)=O)C2=O
IC50: 2950 nM

CO[C@H]1/C=C\C=C(/C)C(=O)NC2=CC(=O)C(NCC3CCN(C(=O)c4ccncc4)CC3)=C(C[C@@H](C)C[C@H](OC)[C@H](O)[C@@H](C)/C=C(\C)[C@@H]1OC(N)=O)C2=O
IC50: 2840 nM

CO[C@H]1/C=C\C=C(/C)C(=O)NC2=CC(=O)C(NCC3CCN(C(=O)c4cccnc4)CC3)=C(C[C@@H](C)C[C@H](OC)[C@H](O)[C@@H](C)/C=C(\C)[C@@H]1OC(N)=O)C2=O
IC50: 2030 nM

CO[C@H]1/C=C\C=C(/C)C(=O)NC2=CC(=O)C(NCCCCCCNC(=O)c3cncc(Br)c3)=C(C[C@@H](C)C[C@H](OC)[C@H](O)[C@@H](C)/C=C(\C)[C@@H]1OC(N)=O)C2=O
IC50: 2350 nM

CO[C@H]1/C=C\C=C(/C)C(=O)NC2=CC(=O)C(NCCCCCCNC(=O)c3ccccn3)=C(C[C@@H](C)C[C@H](OC)[C@H](O)[C@@H](C)/C=C(\C)[C@@H]1OC(N)=O)C2=O
IC50: 1730 nM

CO[C@H]1/C=C\C=C(/C)C(=O)NC2=CC(=O)C(NCCCCCCNC(=O)c3ccc(Br)cc3)=C(C[C@@H](C)C[C@H](OC)[C@H](O)[C@@H](C)/C=C(\C)[C@@H]1OC(N)=O)C2=O
IC50: 4650 nM

CO[C@H]1/C=C\C=C(/C)C(=O)NC2=CC(=O)C(NCCCCCCNC(=O)/C=C/c3ccccc3C)=C(C[C@@H](C)C[C@H](OC)[C@H](O)[C@@H](C)/C=C(\C)[C@@H]1OC(N)=O)C2=O
IC50: 6910 nM

CO[C@H]1/C=C\C=C(/C)C(=O)NC2=CC(=O)C(NCCCCCCNC(=O)c3cc(O)cc(O)c3)=C(C[C@@H](C)C[C@H](OC)[C@H](O)[C@@H](C)/C=C(\C)[C@@H]1OC(N)=O)C2=O
IC50: 4350 nM

CO[C@H]1/C=C\C=C(/C)C(=O)NC2=CC(=O)C(NCC3CCN(C(=O)c4ccccc4O)CC3)=C(C[C@@H](C)C[C@H](OC)[C@H](O)[C@@H](C)/C=C(\C)[C@@H]1OC(N)=O)C2=O
IC50: 1820 nM

CO[C@H]1/C=C\C=C(/C)C(=O)NC2=CC(=O)C(NCC3CCN(C(=O)c4ccccn4)CC3)=C(C[C@@H](C)C[C@H](OC)[C@H](O)[C@@H](C)/C=C(\C)[C@@H]1OC(N)=O)C2=O
IC50: 1120 nM

COc1ccc(OC)c(/C=C/C(=O)NCCCCCCNC2=C3C[C@@H](C)C[C@H](OC)[C@H](O)[C@@H](C)/C=C(\C)[C@H](OC(N)=O)[C@@H](OC)/C=C\C=C(/C)C(=O)NC(=CC2=O)C3=O)c1
IC50: 8150 nM

CO[C@H]1/C=C\C=C(/C)C(=O)NC2=CC(=O)C(NCCCCCCNC(=O)c3ccccc3Cl)=C(C[C@@H](C)C[C@H](OC)[C@H](O)[C@@H](C)/C=C(\C)[C@@H]1OC(N)=O)C2=O
IC50: 3390 nM

CO[C@H]1/C=C\C=C(/C)C(=O)NC2=CC(=O)C(NCCCCNC(=O)c3cccnc3)=C(C[C@@H](C)C[C@H](OC)[C@H](O)[C@@H](C)/C=C(\C)[C@@H]1OC(N)=O)C2=O
IC50: 4090 nM

CO[C@H]1/C=C\C=C(/C)C(=O)NC2=CC(=O)C(NCCCCCCNC(=O)c3cccs3)=C(C[C@@H](C)C[C@H](OC)[C@H](O)[C@@H](C)/C=C(\C)[C@@H]1OC(N)=O)C2=O
IC50: 3030 nM

CO[C@H]1/C=C\C=C(/C)C(=O)NC2=CC(=O)C(NCCCCCCNC(=O)c3ccc(F)cc3)=C(C[C@@H](C)C[C@H](OC)[C@H](O)[C@@H](C)/C=C(\C)[C@@H]1OC(N)=O)C2=O
IC50: 4160 nM

CO[C@H]1/C=C\C=C(/C)C(=O)NC2=CC(=O)C(NCCCCCCNC(=O)c3cncnc3)=C(C[C@@H](C)C[C@H](OC)[C@H](O)[C@@H](C)/C=C(\C)[C@@H]1OC(N)=O)C2=O
IC50: 1220 nM

CO[C@H]1/C=C\C=C(/C)C(=O)NC2=CC(=O)C(NCCCCNC(=O)c3nc(C)c(C)nc3C)=C(C[C@@H](C)C[C@H](OC)[C@H](O)[C@@H](C)/C=C(\C)[C@@H]1OC(N)=O)C2=O
IC50: 8450 nM

COc1ccc(/C=C/C(=O)NCCCCCCNC2=C3C[C@@H](C)C[C@H](OC)[C@H](O)[C@@H](C)/C=C(\C)[C@H](OC(N)=O)[C@@H](OC)/C=C\C=C(/C)C(=O)NC(=CC2=O)C3=O)cc1O
IC50: 1470 nM

CO[C@H]1/C=C\C=C(/C)C(=O)NC2=CC(=O)C(NCCCCCCNC(=O)c3cccnc3)=C(C[C@@H](C)C[C@H](OC)[C@H](O)[C@@H](C)/C=C(\C)[C@@H]1OC(N)=O)C2=O
IC50: 500 nM

CO[C@H]1/C=C\C=C(/C)C(=O)NC2=CC(=O)C(NCCCCCCNC(=O)c3ccc(I)cc3)=C(C[C@@H](C)C[C@H](OC)[C@H](O)[C@@H](C)/C=C(\C)[C@@H]1OC(N)=O)C2=O
IC50: 3960 nM

CO[C@H]1/C=C\C=C(/C)C(=O)NC2=CC(=O)C(NCCCCCCNC(=O)/C=C/c3ccc(C(F)(F)F)cc3)=C(C[C@@H](C)C[C@H](OC)[C@H](O)[C@@H](C)/C=C(\C)[C@@H]1OC(N)=O)C2=O
IC50: > 10000 nM

CO[C@H]1/C=C\C=C(/C)C(=O)NC2=CC(=O)C(NCCCCNC(=O)c3ccccn3)=C(C[C@@H](C)C[C@H](OC)[C@H](O)[C@@H](C)/C=C(\C)[C@@H]1OC(N)=O)C2=O
IC50: 3140 nM

CO[C@H]1/C=C\C=C(/C)C(=O)NC2=CC(=O)C(NCCCCCCNC(=O)/C=C/c3cccc(C)c3)=C(C[C@@H](C)C[C@H](OC)[C@H](O)[C@@H](C)/C=C(\C)[C@@H]1OC(N)=O)C2=O
IC50: 2550 nM

CO[C@H]1/C=C\C=C(/C)C(=O)NC2=CC(=O)C(NCCCCCCNC(=O)/C=C/c3cccc(O)c3)=C(C[C@@H](C)C[C@H](OC)[C@H](O)[C@@H](C)/C=C(\C)[C@@H]1OC(N)=O)C2=O
IC50: 1240 nM

CO[C@H]1/C=C\C=C(/C)C(=O)NC2=CC(=O)C(NCCCCCCNC(=O)/C=C/c3ccc(C)cc3)=C(C[C@@H](C)C[C@H](OC)[C@H](O)[C@@H](C)/C=C(\C)[C@@H]1OC(N)=O)C2=O
IC50: 3960 nM

COc1ccc(/C=C/C(=O)NCCCCCCNC2=C3C[C@@H](C)C[C@H](OC)[C@H](O)[C@@H](C)/C=C(\C)[C@H](OC(N)=O)[C@@H](OC)/C=C\C=C(/C)C(=O)NC(=CC2=O)C3=O)c(OC)c1OC
IC50: 1860 nM

CO[C@H]1/C=C\C=C(/C)C(=O)NC2=CC(=O)C(NCCCCCCNC(=O)/C=C/c3ccc(OC(F)(F)F)cc3)=C(C[C@@H](C)C[C@H](OC)[C@H](O)[C@@H](C)/C=C(\C)[C@@H]1OC(N)=O)C2=O
IC50: > 10000 nM

CO[C@H]1/C=C\C=C(/C)C(=O)NC2=CC(=O)C(NCCCCCCNC(=O)/C=C/c3cccc([N+](=O)[O-])c3)=C(C[C@@H](C)C[C@H](OC)[C@H](O)[C@@H](C)/C=C(\C)[C@@H]1OC(N)=O)C2=O
IC50: 1020 nM

CO[C@H]1/C=C\C=C(/C)C(=O)NC2=CC(=O)C(NCCCCCCNC(=O)/C=C/c3ccc(N(C)C)cc3)=C(C[C@@H](C)C[C@H](OC)[C@H](O)[C@@H](C)/C=C(\C)[C@@H]1OC(N)=O)C2=O
IC50: 2110 nM

CO[C@H]1/C=C\C=C(/C)C(=O)NC2=CC(=O)C(NCCCCNC(=O)c3ccccc3O)=C(C[C@@H](C)C[C@H](OC)[C@H](O)[C@@H](C)/C=C(\C)[C@@H]1OC(N)=O)C2=O
IC50: 4900 nM
